Data: patent publication US20230158109A1, “USE OF CD83 IN COMBINATION THERAPIES” (Colmmune, Inc., priority 2006, published 2023)

Assays:
[1] = test system: C57BL/6 Hearts in BALB/c Recipients; assay: Intra-abdominal heterotopic heart transplantation, graft survival, C57BL/6 to BALB/c; format: in vivo, mouse; details: sCD83 100 μg i.p. daily day -1 to 7, then every other day to day 28, tacrolimus 8 mg/kg/day oral, MMF 80 mg/kg/day oral
Description: Treatment with tacrolimus was by daily oral administration of a subtherapeutic dose of 8 mg/kg/day, and treatment with MMF was by daily oral administration of a low dose of 80 mg/kg/day.
In further experiments, transplant recipients were treated with a shorter course of administrations and a different route of administration.

[2] = test system: C3H Hearts in C57BL/6 Recipients; assay: Heterotopic heart transplantation, graft survival, C3H to C57BL/6; details: sCD83 100 μg i.p. daily days 1-7 then q.o.d. days 8-16, sirolimus 2 mg/kg p.o. days 0-14, anti-CD45RB mAb 100 μg i.v. days 0-14
Description: (§1) Hearts were removed from donor mice as indicated and transplanted into the peritoneal cavity of recipient mice (i.e., heterotopic transplantation). Recipient mice were treated as indicated, with some treatments beginning prior to transplantation. Survival of the allograft was monitored and scored as follows: “A,” beating strongly; “B,” mild decline in the intensity of pulsation; “C,” noticeable decline in the intensity of pulsation; “D,” complete cessation of cardiac impulses. Mean survival time of the transplanted tissue was determined for each treatment.
In a further set of experiments, C3H mouse hearts were transplanted into the peritoneal cavity of C57BL/6 mice (results shown in Table 3 and FIG. 7). […] Other treatments included subtherapeutic doses of either anti-CD45RB monoclonal antibody (“mAb”) (i.e., 100 μg/mouse every day from days 0 through 14 by intravenous injection) or sirolimus (i.e., 2 mg/kg every day from days 0 through 14 by oral administration (“p.o.”)).

[3] = test system: C3H Hearts in BALB/c Recipients; assay: Heterotopic heart transplantation, graft survival, C3H to BALB/c; details: sCD83 100 μg i.p. daily day -1 to 28, sirolimus 2 mg/kg oral day 0-14, anti-CD45RB 100 μg i.v. day 0-14
Description: as §1
In a first set of experiments, C3H donor mice and BALB/c recipient mice were used. In this set of experiments, sCD83 treatment began on day −1 (i.e., the day prior to transplantation) and lasted until day 28; each day, 100 μg of sCD83 was administered to each mouse by intraperitoneal injection. Sirolimus treatment began on day 0 (i.e., the day of transplantation) and continued until day 14; each day, 2 mg/kg of sirolimus was administered orally to each mouse. Anti-CD45RB treatment began on day 0 and continued until day 14; each day, 100 μg of anti-CD45RB (BioExpress, Inc., West Lebanon, New Hampshire) was administered to each mouse intravenously.

C=CC[C@@H]1/C=C(\C)C[C@H](C)C[C@H](OC)[C@H]2O[C@@](O)(C(=O)C(=O)N3CCCC[C@H]3C(=O)O[C@H](/C(C)=C/[C@@H]3CC[C@@H](O)[C@H](OC)C3)[C@H](C)[C@@H](O)CC1=O)[C@H](C)C[C@@H]2OC [Tacrolimus, tacrolimus, reference compound]
MST [1]: 16.3 ± 1.0 days

CO[C@H]1C[C@@H]2CC[C@@H](C)[C@@](O)(O2)C(=O)C(=O)N2CCCC[C@H]2C(=O)O[C@H]([C@H](C)C[C@@H]2CC[C@@H](O)[C@H](OC)C2)CC(=O)[C@H](C)/C=C(\C)[C@@H](O)[C@@H](OC)C(=O)[C@H](C)C[C@H](C)/C=C/C=C/C=C/1C [Sirolimus, sirolimus, reference compound]
MST [2]: 16.7 ± 2.1 days | MST [3]: 21.3 ± 6.2 days
